Results from ChEMBL document CHEMBL4725321, “Study on antitumor activities of the chrysin-chromene-spirooxindole on Lewis lung carcinoma C57BL/6 mice in vivo” (Bioorg Med Chem Lett, 2020).
Calls of active or inactive are those of the source. No cut-off for these calls is given here.

Key:
[1] = In vivo activation of p53 in mouse LLC allografted C57BL/6 mouse assessed as reduction in Akt protein expression in tumor at 200 mg/kg, ip administered once every other day by Western blot analysis relative to control; type: functional
[2] = Toxicity in C57BL/6 mouse assessed as increase in body weight at 400 mg/kg, ip measured up to 15 days; type: organism-based; conditions: in vivo, 360 h, time <=15 day
[3] = system: Lewis lung carcinoma; test: Antitumor activity against mouse LLC allografted in ip dosed C57BL/6 mouse assessed as reduction in bcl2 expression administered once every other day by Western blot analysis; type: functional, organism-based; conditions: dose mg/kg 100-400
[4] = system: Lewis lung carcinoma; test: Antitumor activity against mouse LLC allografted in ip dosed C57BL/6 mouse assessed as induction of apoptosis by measuring increase in apoptotic bodies in tumor administered every other day by H and E staining based analysis; type: functional, organism-based; conditions: dose mg/kg 100-400
[5] = system: Lewis lung carcinoma; test: Antitumor activity against mouse LLC allografted in ip dosed C57BL/6 mouse assessed as reduction in tumor volume measured after 7 days; type: functional, organism-based; conditions: dose mg/kg 100-400, time 7.0 day
[6] = Upregulation of p53 protein expression in […] LLC allografted C57BL/6 mouse at 400 mg/kg, ip administered once every other day by Western blot analysis relative to control; type: functional
[7] = Antitumor activity against mouse LLC allografted in C57BL/6 mouse assessed as tumor weight at 400 mg/kg, ip administered once every other day (reference value: 2.74 +/- 0.29 g); type: functional, Lewis lung carcinoma
[8] = In vivo activation of p53 in mouse LLC allografted C57BL/6 mouse assessed as reduction in 5-lox protein expression in tumor at 400 mg/kg, ip administered once every other day by Western blot analysis relative to control; type: functional
[9] = system: Mus musculus; test: Down regulation of MMP2 protein expression in mouse LLC allografted C57BL/6 mouse at 200 mg/kg, ip by Western blot analysis; type: functional, organism-based
[10] = Toxicity in C57BL/6 mouse assessed as increase in body weight at 100 to 200 mg/kg, ip measured up to 15 days; type: organism-based; conditions: in vivo, 360 h, dose 100-200 mg/kg, time <=15 day
[11] = system: Lewis lung carcinoma; test: Antitumor activity against mouse LLC allografted in ip dosed C57BL/6 mouse assessed as reduction in tumor growth administered once every other day; type: functional, organism-based; conditions: dose mg/kg 100-400
[12] = Antitumor activity against mouse LLC allografted in C57BL/6 mouse assessed as bax/bcl2 ratio at 200 mg/kg, ip administered once every other day by Western blot analysis; type: functional, Lewis lung carcinoma
[13] = system: Lewis lung carcinoma; test: Antitumor activity against mouse LLC allografted in C57BL/6 mouse assessed as reduction in tumor weight at 400 mg/kg, ip administered once every other day; type: functional, organism-based
[14] = Antitumor activity against mouse LLC allografted in C57BL/6 mouse assessed as tumor growth inhibition at 100 mg/kg, ip administered once every other day relative to control; type: functional; conditions: Lewis lung carcinoma, read-out: TGI
[15] = system: Lewis lung carcinoma; test: Antitumor activity against mouse LLC allografted in C57BL/6 mouse assessed as Cyt C protein expression level in tumor at 400 mg/kg, ip administered once every other day by Western blot analysis relative to control; type: functional, organism-based
[16] = Antitumor activity against mouse LLC allografted in C57BL/6 mouse assessed as tumor growth inhibition at 200 mg/kg, ip administered once every other day relative to control; type: functional; conditions: Lewis lung carcinoma, read-out: TGI
[17] = Antitumor activity against mouse LLC allografted in C57BL/6 mouse assessed as bax/bcl2 ratio at 100 mg/kg, ip administered once every other day by Western blot analysis; type: functional, Lewis lung carcinoma
[18] = system: Mus musculus; test: Down regulation of VEGF protein expression in mouse LLC allografted C57BL/6 mouse at 200 to 400 mg/kg, ip by Western blot analysis; type: functional, organism-based; conditions: dose mg/kg 200-400
[19] = system: Lewis lung carcinoma; test: Antitumor activity against mouse LLC allografted in C57BL/6 mouse assessed as inhibition of tumor growth at 400 mg/kg, ip measured after 7 days; type: functional, organism-based; conditions: time 7.0 day
[20] = Antitumor activity against mouse LLC allografted in C57BL/6 mouse assessed as tumor growth inhibition at 400 mg/kg, ip administered once every other day relative to control; type: functional; conditions: Lewis lung carcinoma, read-out: TGI
[21] = Toxicity in C57BL/6 mouse assessed as effect on body weight at 100 to 400 mg/kg, ip measured on day 3; type: organism-based; conditions: in vivo, 72 h, dose 100-400 mg/kg, time 3 day
[22] = system: Mus musculus; test: Down regulation of ICAM1 protein expression in mouse LLC allografted C57BL/6 mouse at 100 mg/kg, ip by Western blot analysis; type: functional, organism-based
[23] = biological target: E3 ubiquitin-protein ligase Mdm2 (Mus musculus) (UniProt P23804); test: In vivo activation of p53 in mouse LLC allografted C57BL/6 mouse assessed as reduction in MDM2 protein expression in tumor at 100 to 400 mg/kg, ip administered once every other day by Western blot analysis; type: functional, organism-based; conditions: dose mg/kg 100-400
E3 ubiquitin-protein ligase Mdm2 (Mus musculus), sequence (P23804 whole entry): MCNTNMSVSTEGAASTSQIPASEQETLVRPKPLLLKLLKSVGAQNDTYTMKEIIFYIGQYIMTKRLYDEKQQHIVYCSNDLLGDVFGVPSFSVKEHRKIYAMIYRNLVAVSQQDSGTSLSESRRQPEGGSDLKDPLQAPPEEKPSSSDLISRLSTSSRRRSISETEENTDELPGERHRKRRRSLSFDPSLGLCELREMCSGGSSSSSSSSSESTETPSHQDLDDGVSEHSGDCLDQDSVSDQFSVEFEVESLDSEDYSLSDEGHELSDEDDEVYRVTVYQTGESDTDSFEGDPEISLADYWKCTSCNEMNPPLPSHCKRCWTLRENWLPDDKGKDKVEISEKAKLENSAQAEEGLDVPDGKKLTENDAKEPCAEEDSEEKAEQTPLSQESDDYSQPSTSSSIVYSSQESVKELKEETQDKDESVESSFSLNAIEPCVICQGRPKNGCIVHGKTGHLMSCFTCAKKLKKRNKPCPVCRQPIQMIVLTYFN

[24] = system: Lewis lung carcinoma; test: Antitumor activity against mouse LLC allografted in C57BL/6 mouse assessed as effect on Cyt C protein expression in tumor at 100 to 200 mg/kg, ip administered once every other day by Western blot analysis; type: functional, organism-based; conditions: dose mg/kg 100-200
[25] = system: Lewis lung carcinoma; test: Antitumor activity against mouse LLC allografted in ip dosed C57BL/6 mouse assessed as induction of apoptosis by measuring nuclear contraction administered every other day by H and E staining based analysis; type: functional, organism-based; conditions: dose mg/kg 100-400
[26] = Antitumor activity against mouse LLC allografted in C57BL/6 mouse assessed as tumor weight at 100 mg/kg, ip administered once every other day (reference value: 2.74 +/- 0.29 g); type: functional, Lewis lung carcinoma
[27] = Antitumor activity against mouse LLC allografted in C57BL/6 mouse assessed as bax/bcl2 ratio at 400 mg/kg, ip administered once every other day by Western blot analysis; type: functional, Lewis lung carcinoma
[28] = system: Lewis lung carcinoma; test: Antitumor activity against mouse LLC allografted in ip dosed C57BL/6 mouse assessed as induction of apoptosis by measuring reduction in number of tumor cells administered every other day by H and E staining based analysis; type: functional, organism-based; conditions: dose mg/kg 100-400
[29] = system: Lewis lung carcinoma; test: Antitumor activity against mouse LLC allografted in ip dosed C57BL/6 mouse assessed as increase in bax expression administered once every other day by Western blot analysis; type: functional, organism-based; conditions: dose mg/kg 100-400
[30] = Antitumor activity against mouse LLC allografted in C57BL/6 mouse assessed as tumor weight at 200 mg/kg, ip administered once every other day (reference value: 2.74 +/- 0.29 g); type: functional, Lewis lung carcinoma
[31] = system: Lewis lung carcinoma; test: Antitumor activity against mouse LLC allografted in ip dosed C57BL/6 mouse assessed as induction of apoptosis by measuring increase in cell debris content in tumor administered every other day by H and E staining based analysis; type: functional, organism-based; conditions: dose mg/kg 100-400
[32] = system: Mus musculus; test: Down regulation of VEGF protein expression in mouse LLC allografted C57BL/6 mouse at 100 mg/kg, ip by Western blot analysis; type: functional, organism-based

For `CN1C(=O)C2(C(C#N)=C(N)Oc3cc4oc(-c5ccccc5)cc(=O)c4c(O)c32)c2cc(Br)ccc21` (configuration not stated), the “fold change (FC)” value [1] was 0.59, the Activity [2] was “Non-Toxic” and the Activity [3] was “Dose-dependent effect”. The Activity [4] was “Dose-dependent effect”, the Activity [5] was “Dose-dependent effect” and the “fold change (FC)” value [6] was 2.86. For the same molecule, the Activity [7] was 1.18 g, the “fold change (FC)” value [8] was 0.4 and the Activity [9] was “Active”. For the same molecule, the Activity [10] was “Toxic”, the Activity [11] was “Dose-dependent effect” and the Ratio [12] was 2.23. The Activity [13] was “Active”, the inhibition in vivo at 100 mg/kg [14] was 7.45% and the Activity [15] was “Active”. For the same molecule, the inhibition in vivo at 200 mg/kg [16] was 20%, the Ratio [17] was 1.29 and the Activity [18] was “Active”. For the same molecule, the TGI [19] was “Active”, the inhibition in vivo at 400 mg/kg [20] was 56.9% and the Activity [21] was “Non-Toxic”. For the same molecule, the Activity [22] was “Active”, the Activity [23] was “Active” and the Activity [24] was “inactive”. For the same molecule, the Activity [25] was “Dose-dependent effect”, the Activity [26] was 2.51 g and the Ratio [27] was 4.13. The Activity [28] was “Dose-dependent effect”, the Activity [29] was “Dose-dependent effect” and the Activity [30] was 2.15 g. The Activity [31] was “Dose-dependent effect” and the Activity [32] was “inactive”.
